Assays:
Assay in all cases: Eurofins kinase selectivity profile against 380 other human recombinant kinases (Table S2)
Assay type in all cases: biochemical
[1] = molecular target: T1, 380 human recombinant protein kinases (Homo sapiens, UniProt O43293); conditions: ZIPK(h), read-out: Inhibition rate (%)
T1 construct: purchased Eurofins (Celle Lévescault)
In short: (§1)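 Selectivity panel of 380 human recombinant protein kinases, screened by Eurofins at a range of concentrations.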

[2] = molecular target: T2, 380 human recombinant protein kinases (Homo sapiens, UniProt O75460); conditions: IRE1(h), read-out: Inhibition rate
T2 construct: purchased Eurofins (Celle Lévescault)
T2 sequence (O75460 19-977): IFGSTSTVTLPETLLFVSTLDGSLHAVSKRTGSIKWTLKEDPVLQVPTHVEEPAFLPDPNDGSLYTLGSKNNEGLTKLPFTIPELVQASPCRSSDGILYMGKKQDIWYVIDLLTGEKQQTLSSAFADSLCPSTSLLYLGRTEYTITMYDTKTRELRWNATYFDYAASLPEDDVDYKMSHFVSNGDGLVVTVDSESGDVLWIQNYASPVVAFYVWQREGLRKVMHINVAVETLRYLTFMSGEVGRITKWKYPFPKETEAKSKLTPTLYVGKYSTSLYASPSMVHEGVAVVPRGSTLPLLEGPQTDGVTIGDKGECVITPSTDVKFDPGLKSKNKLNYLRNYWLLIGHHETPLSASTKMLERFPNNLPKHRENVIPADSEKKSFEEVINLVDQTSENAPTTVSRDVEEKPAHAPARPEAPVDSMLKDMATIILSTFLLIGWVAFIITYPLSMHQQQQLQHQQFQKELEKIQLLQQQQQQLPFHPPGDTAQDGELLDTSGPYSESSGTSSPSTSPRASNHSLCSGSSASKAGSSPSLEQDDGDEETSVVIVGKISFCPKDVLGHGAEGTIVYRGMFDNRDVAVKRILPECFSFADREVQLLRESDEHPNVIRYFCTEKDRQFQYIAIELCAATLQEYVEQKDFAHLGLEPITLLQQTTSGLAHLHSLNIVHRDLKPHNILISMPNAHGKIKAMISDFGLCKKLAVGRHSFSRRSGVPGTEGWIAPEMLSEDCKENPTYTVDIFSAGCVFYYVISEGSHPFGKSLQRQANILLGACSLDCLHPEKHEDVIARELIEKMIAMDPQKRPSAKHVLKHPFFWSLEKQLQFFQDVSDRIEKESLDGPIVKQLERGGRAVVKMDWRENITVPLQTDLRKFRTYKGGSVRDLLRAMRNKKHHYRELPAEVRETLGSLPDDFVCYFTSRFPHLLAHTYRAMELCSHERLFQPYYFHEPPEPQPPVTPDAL
In short: as §1

[3] = molecular target: T3, 380 human recombinant protein kinases (Homo sapiens, UniProt P08922); conditions: Ros(h), read-out: Inhibition rate
T3 construct: purchased Eurofins (Celle Lévescault)
T3 sequence (P08922 28-2347): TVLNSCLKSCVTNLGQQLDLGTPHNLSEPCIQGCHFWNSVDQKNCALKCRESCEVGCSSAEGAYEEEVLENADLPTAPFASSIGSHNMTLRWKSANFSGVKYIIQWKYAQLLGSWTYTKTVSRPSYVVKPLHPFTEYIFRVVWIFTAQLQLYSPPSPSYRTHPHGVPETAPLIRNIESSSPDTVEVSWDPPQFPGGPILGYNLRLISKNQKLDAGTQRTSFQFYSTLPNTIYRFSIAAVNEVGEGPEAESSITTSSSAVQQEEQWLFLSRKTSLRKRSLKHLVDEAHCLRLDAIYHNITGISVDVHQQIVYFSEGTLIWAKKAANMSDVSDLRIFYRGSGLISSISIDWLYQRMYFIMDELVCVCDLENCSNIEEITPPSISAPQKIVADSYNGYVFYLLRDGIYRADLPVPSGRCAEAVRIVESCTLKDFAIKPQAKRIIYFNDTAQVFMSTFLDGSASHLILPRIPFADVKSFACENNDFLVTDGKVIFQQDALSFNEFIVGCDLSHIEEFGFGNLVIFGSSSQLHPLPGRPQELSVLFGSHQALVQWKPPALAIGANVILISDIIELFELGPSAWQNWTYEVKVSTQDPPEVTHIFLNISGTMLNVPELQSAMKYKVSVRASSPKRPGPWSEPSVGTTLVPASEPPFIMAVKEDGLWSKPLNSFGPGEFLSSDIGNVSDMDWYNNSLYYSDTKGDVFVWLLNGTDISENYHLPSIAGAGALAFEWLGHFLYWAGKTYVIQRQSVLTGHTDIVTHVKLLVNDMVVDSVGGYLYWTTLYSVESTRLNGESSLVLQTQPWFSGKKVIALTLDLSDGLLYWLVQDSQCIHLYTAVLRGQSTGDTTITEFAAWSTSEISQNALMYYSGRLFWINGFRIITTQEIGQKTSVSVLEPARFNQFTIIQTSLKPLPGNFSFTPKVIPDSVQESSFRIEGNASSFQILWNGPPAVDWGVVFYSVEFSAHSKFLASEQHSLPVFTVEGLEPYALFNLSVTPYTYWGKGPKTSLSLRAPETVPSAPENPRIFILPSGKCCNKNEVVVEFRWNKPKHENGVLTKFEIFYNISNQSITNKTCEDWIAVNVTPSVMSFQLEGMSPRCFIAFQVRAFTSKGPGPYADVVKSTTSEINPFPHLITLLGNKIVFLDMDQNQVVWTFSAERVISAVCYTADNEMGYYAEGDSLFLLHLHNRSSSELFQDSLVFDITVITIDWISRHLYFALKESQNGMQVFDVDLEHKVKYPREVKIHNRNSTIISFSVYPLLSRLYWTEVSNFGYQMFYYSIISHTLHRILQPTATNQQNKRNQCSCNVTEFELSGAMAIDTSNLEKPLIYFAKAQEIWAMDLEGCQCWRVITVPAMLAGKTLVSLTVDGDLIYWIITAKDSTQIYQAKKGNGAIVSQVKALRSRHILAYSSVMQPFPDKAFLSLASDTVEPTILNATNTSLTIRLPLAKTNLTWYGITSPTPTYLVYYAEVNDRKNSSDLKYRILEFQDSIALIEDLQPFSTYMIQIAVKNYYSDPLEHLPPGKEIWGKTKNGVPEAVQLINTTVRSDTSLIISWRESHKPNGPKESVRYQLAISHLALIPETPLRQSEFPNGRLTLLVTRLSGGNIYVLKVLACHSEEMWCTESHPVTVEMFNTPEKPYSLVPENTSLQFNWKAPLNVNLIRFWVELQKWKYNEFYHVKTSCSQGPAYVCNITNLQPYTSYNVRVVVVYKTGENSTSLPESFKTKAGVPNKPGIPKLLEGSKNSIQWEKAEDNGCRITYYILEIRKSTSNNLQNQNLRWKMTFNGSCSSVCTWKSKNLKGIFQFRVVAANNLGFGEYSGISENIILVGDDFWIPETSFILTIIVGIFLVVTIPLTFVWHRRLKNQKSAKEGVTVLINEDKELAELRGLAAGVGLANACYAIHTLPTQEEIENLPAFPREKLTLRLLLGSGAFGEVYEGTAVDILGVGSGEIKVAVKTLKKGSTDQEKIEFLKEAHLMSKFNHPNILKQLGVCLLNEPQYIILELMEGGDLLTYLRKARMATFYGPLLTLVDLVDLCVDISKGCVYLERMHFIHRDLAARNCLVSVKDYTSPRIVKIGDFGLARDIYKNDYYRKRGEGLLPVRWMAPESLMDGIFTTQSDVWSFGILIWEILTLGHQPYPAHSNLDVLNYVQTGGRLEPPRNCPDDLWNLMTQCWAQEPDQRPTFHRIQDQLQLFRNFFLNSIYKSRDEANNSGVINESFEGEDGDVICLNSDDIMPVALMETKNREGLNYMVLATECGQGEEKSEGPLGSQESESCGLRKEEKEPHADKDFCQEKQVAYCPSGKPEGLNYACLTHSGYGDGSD
In short: as §1

[4] = molecular target: T4, 380 human recombinant protein kinases (Homo sapiens, UniProt P29320); conditions: EphA3(h), read-out: Inhibition rate
T4 construct: purchased Eurofins (Celle Lévescault)
T4 sequence (P29320 21-983): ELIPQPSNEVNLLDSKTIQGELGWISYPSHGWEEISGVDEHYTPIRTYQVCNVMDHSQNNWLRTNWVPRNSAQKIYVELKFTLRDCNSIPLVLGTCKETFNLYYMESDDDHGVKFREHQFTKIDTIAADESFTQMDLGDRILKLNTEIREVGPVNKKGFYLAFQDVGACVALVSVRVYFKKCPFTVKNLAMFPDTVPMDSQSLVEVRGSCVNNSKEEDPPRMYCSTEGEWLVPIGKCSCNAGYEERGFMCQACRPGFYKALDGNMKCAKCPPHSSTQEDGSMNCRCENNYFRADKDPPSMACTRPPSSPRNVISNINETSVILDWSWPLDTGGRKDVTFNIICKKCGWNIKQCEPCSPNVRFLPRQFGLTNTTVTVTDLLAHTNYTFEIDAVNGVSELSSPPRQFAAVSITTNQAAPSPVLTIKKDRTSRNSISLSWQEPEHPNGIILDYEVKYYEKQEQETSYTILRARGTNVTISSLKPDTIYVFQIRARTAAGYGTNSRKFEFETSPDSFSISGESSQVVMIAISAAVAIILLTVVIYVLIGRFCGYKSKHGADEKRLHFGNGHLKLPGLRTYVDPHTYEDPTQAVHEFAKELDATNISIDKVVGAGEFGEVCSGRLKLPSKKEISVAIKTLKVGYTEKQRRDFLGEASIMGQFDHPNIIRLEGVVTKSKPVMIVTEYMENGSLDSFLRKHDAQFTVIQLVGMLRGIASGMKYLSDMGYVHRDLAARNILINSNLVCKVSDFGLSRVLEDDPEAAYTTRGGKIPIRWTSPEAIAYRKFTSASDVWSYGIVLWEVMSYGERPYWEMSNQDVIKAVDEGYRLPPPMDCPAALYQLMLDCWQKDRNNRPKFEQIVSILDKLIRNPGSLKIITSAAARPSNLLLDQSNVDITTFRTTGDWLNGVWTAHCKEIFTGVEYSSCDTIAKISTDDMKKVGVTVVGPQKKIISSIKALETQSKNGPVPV
In short: as §1

[5] = molecular target: T5, 380 human recombinant protein kinases (Homo sapiens, UniProt P49674); conditions: CK1ε(h), read-out: Inhibition rate
T5 construct: purchased Eurofins (Celle Lévescault)
T5 sequence (P49674 whole entry): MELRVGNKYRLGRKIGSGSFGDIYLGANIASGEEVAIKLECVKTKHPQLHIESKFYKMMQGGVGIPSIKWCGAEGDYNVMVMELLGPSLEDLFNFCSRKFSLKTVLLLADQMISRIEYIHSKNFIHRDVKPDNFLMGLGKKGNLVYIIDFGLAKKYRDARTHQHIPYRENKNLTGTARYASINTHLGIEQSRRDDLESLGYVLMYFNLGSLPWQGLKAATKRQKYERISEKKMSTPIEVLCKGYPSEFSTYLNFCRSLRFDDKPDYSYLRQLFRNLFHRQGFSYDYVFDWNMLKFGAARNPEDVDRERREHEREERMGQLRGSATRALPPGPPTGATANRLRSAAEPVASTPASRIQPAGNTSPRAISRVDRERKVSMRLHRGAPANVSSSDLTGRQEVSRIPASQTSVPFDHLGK
In short: as §1

[6] = molecular target: T6, 380 human recombinant protein kinases (Homo sapiens, UniProt Q9HBH9); conditions: Mnk2(h), read-out: Inhibition rate
T6 construct: purchased Eurofins (Celle Lévescault)
T6 sequence (Q9HBH9 whole entry): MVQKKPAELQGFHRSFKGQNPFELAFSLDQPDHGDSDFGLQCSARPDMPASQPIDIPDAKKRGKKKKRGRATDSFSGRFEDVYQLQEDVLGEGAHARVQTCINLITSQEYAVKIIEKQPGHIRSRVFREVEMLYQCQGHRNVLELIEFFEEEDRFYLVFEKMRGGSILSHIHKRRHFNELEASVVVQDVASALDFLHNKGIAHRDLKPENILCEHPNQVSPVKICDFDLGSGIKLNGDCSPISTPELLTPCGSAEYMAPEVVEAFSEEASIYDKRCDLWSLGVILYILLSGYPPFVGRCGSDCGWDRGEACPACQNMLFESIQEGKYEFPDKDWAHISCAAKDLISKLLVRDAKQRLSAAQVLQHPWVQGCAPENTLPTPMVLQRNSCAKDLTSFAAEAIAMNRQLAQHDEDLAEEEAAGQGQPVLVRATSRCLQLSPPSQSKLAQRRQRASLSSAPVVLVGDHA
In short: as §1

[7] = molecular target: T7, 380 human recombinant protein kinases (Homo sapiens, UniProt Q9NRM7); conditions: LATS2(h), read-out: Inhibition rate
T7 construct: purchased Eurofins (Celle Lévescault)
T7 sequence (Q9NRM7 1-1088): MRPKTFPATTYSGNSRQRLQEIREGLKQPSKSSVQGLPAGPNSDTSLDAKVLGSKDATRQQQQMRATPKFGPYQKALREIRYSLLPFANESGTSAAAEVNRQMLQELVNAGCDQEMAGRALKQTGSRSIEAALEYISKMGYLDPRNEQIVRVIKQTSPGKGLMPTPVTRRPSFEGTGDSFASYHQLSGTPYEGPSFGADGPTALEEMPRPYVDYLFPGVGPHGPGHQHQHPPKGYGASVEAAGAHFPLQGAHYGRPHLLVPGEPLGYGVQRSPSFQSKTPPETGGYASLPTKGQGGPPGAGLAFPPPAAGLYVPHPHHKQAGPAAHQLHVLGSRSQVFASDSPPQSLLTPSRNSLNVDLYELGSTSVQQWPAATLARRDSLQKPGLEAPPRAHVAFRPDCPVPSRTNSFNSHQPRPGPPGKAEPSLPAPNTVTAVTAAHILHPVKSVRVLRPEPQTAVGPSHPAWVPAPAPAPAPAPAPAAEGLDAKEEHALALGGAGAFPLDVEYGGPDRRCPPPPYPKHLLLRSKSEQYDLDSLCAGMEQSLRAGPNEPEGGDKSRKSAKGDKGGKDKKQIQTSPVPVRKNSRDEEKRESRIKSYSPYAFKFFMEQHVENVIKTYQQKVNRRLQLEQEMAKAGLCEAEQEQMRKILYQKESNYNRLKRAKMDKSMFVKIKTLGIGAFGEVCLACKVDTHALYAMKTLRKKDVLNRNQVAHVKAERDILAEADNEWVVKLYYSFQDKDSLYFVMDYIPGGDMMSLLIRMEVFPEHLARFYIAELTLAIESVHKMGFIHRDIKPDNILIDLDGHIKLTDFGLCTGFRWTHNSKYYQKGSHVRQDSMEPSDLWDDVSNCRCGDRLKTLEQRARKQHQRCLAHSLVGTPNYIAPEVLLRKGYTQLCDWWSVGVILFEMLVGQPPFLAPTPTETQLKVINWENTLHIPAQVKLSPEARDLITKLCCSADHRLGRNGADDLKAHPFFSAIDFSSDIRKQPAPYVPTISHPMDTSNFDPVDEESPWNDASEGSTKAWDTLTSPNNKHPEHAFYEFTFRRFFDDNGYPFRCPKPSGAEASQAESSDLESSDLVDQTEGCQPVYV
In short: as §1

T1 sequence (O43293 whole entry): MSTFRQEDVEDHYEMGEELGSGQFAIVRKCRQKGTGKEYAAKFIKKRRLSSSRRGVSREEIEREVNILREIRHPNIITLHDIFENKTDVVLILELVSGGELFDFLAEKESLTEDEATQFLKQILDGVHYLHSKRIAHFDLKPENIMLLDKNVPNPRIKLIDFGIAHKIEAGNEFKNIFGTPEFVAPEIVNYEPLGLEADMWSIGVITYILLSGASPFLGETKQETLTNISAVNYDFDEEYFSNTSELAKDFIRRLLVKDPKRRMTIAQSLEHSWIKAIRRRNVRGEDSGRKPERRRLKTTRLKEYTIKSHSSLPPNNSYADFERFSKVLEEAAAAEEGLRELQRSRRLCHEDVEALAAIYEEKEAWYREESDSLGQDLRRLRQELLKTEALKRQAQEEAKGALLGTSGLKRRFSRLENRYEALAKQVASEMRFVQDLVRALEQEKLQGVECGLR

**Q.** What does the source list for C=CC(=O)Nc1cc(-c2cc(-c3cc4c([nH]3)CCNC4=O)ccn2)ccc1OC(F)(F)F [compound 11]?
**A.** inhibition at 0.01 µM ([1]; 10 nM): 4%; inhibition at 0.1 µM ([1]; 100 nM): 8%; inhibition at 1 µM ([1]; 1000 nM): 15%; inhibition at 0.01 µM ([2]; 10 nM): 0%; inhibition at 0.1 µM ([2]; 100 nM): -2%; inhibition at 1 µM ([2]; 1000 nM): 0%; inhibition at 0.01 µM ([3]; 10 nM): 1%; inhibition at 0.1 µM ([3]; 100 nM): 1%; inhibition at 1 µM ([3]; 1000 nM): 6%; inhibition at 0.01 µM ([4]; 10 nM): 15%; inhibition at 0.1 µM ([4]; 100 nM): -1%; inhibition at 1 µM ([4]; 1000 nM): -10%; inhibition at 0.01 µM ([5]; 10 nM): -5%; inhibition at 0.1 µM ([5]; 100 nM): 4%; inhibition at 1 µM ([5]; 1000 nM): 34%; inhibition at 0.01 µM ([6]; 10 nM): 4%; inhibition at 0.1 µM ([6]; 100 nM): 13%; inhibition at 1 µM ([6]; 1000 nM): 61%; inhibition at 0.01 µM ([7]; 10 nM): 1%; inhibition at 0.1 µM ([7]; 100 nM): 8%; inhibition at 1 µM ([7]; 1000 nM): 4%
